Experimental data from patent publication US4596789A, “Proline derivatives” (ICI Americas Inc., priority 1983, dated 1986).
Starred links: 1 amine or outer side, 2 acyl side, 3 side chain; linkers in the order of their positions; H or OH if unused. Non-standard residues stand in square brackets, D forms with d. Residues, ends and D or L forms follow the SMILES beside them. *: point of attachment. Suc = O=C(CCC(=O)[*:2])[*:1]; MeOSuc = COC(=O)CCC(=O)*; Cbz = O=C(OCc1ccccc1)*; Boc = CC(C)(C)OC(=O)*; CO = O=C([*:1])[*:2]

Key:
[1] = biological target: T1, human leukocyte elastase (HLE) (Homo sapiens, UniProt P08246); experiment: Inhibition of human leukocyte elastase acting on a peptide p-nitroanilide substrate, Ki from Dixon plot; type: biochemical; settings: room temperature; 16.6% (v/v) DMSO, pH 8.1; substrate methoxysuccinyl-alanyl-alanylprolyl-valine-p-nitroanilide 1.6×10^-4 molar; read-out: Ki, dissociation constant of the inhibitor-HLE complex
T1 construct: The HLE enzyme used in these studies may be obtained according to B. R. Viscarello et al. in Preparative Biochemistry, Vol. 13 (1983); from tissue; The enzyme was isolated by a cited preparative procedure. b8 says HLE is released from the granules of polymorphonuclear leukocytes
T1 sequence (P08246 30-267): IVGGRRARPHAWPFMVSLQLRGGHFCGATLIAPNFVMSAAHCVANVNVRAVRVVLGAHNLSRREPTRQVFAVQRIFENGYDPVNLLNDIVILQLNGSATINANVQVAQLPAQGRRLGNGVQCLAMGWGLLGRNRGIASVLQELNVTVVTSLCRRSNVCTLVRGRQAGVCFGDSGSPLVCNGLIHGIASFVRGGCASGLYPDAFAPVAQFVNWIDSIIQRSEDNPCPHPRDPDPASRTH
Procedure: The potency of compounds of the invention to act as elastase inhibitors was determined by the ability of a compound of the invention to inhibit the action of human leukocyte elastase (HLE) on a low molecular weight peptide substrate. The potency of an inhibitor is evaluated by obtaining a kinetic determination of the dissociation constant, Ki, of the complex formed from the interaction of the inhibitor with HLE. The substrate used was the anilide methoxysuccinyl-alanyl-alanylprolyl-valine-p-nitroanilide as described by K. Nakajima et al. in The Journal of Biological Chemistry, Vol. 254, pages 4027-4032 (1979) and by T. Teshima et al. in The Journal of Biological Chemistry, Vol. 257, No. 9, pages 5085-5091 (1982). The HLE enzyme used in these studies may be obtained according to B. R. Viscarello et al. in Preparative Biochemistry, Vol. 13 (1983).
From HLE enzyme obtained as described in the Viscarello et al reference, a standard rate of production of p-nitroaniline was measured at room temperature spectrophotometrically in the visible spectrum at 410 nanometers, with automatic data acquisition in a Cary 210-Apple III Plus microcomputer system obtained from Varian Associates. Reactions were initiated by injection of a small aliquot (50 or 100 microliters) of a stock solution of the anilide substrate in DMSO into a curvette containing buffer and HLE enzyme. The amount of HLE used is sufficient to produce an initial velocity of about 0.01 OD (optical density) per minute. Final volume was 3.0 ml. Initial velocities of production of p-nitroaniline were determined from linear regression analysis of at least 30 data points (OD410 vs. time) taken during the initial, linear, portion of the reaction. The initial velocity for the HLE sample without any inhibitor being present was obtained and used as a standard for the subsequent determination of the initial velocity of the reaction in the presence of an inhibitor to be tested. The Ki value of a particular inhibitor was determined as follows. To a 3 ml cuvette were added […] of a buffer (9 millimolar sodium phosphate, 10% DMSO (v/v), pH=7.9), 100 microliters of inhibitor solution in DMSO and 20 microliters of HLE stock solution at the same concentration used in the control. After the inhibitor and enzyme solution had equilibrated, the reaction was initiated by the addition of 100 microliters of the stock substrate solution in DMSO. The final solution was 16.6% (v/v) in DMSO, with pH 8.1. The substrate was at an initial concentration of 1.6×10^-4 molar. […]

[2] = Pharmacokinetics: serum level of inhibitor after subcutaneous injection; type: in vivo, Male Syrian hamsters; settings: serum inhibitor concentration vs time
Procedure: Pharmacokinetics: Male Syrian hamsters (80 to 120) g) are injected subcutaneously with the test compound. Prior to injection and at varying time periods thereafter they are lightly anesthetized with ether and blood samples of approximately 0.2 ml each are withdrawn by cardiac puncture. The blood is expressed into 2 ml centrifuge tubes and allowed to clot for one hr. The sample is then centrifuged and the serum removed. Blood samples are taken before (time 0) and 15, 30, 60, 90 and 120 minutes after subcutaneous administration of the test compound in an appropriate vehicle.
Drug levels are determined by first inactivating endogenous elastase inhibitors by incubation of 50 microliters of serum with an equal volume of buffer containing 5 mg/ml bovine pancreatic trypsin for 5 min. […] After an additional 2 min. incubation, the reaction is started by the addition of substrate (100 microliters) (MeOSuc-Ala-Ala-Pro-Val-pNA, 1.6 mM) and the reaction monitored spectrophotometrically at a wavelength of 410 nm. Serum concentrations of the test compounds are determined by the following equation: [formula] where [I], [E] and [S] are the assay concentrations of inhibitor enzyme and substrate respectively, Ki is the inhibition constant of the inhibitor being assayed, Km is the Michaelis constant of the substrate, Vo is the control uninhibited reaction velocity, and Vi is the inhibited reaction velocity. […]

[3] = biological target: T2, human leukocyte elastase (Homo sapiens, UniProt P08246); settings: reported by Szabo et al. 1982, cited from earlier work
T2 sequence (P08246 30-267): T1 sequence (P08246 30-267)

Compound | Ki [1] [nM] | activity in animals as measured by the pharmacokinetics test [2] | stronger inhibition than the other four aldehydes [3] | Ki ([3]; read-out: Ki (HLE inhibition)) [nM]
CC(C)[C@H](NC(=O)[C@H](CCCCNC(=O)OCc1ccccc1)NC(=O)OC(C)(C)C)C(=O)N1CCC[C@H]1C(=O)N[C@H](C=O)C(C)C [Example 1f, N-alpha-t-Butyloxycarbonyl-N-epsilon-benzyloxycarbonyl-L-lysyl-L-valyl-L-p rolyl-L-valinal] (Boc-K(Cbz)VPV-aldehyde) | 15 | – | – | –
CC(C)[C@H](NC(=O)[C@H](CCCCNC(=O)OCc1ccccc1)NC(=O)CCC(=O)O)C(=O)N1CCC[C@H]1C(=O)N[C@H](C=O)C(C)C [Example 5b, N-alpha-Succinyl-N-epsilon-benzyloxycarbonyl-L-lysyl-L-valyl-L-prolyl-L-va linal] (Suc-K(Cbz)VPV-aldehyde) | 30 | good activity in animals | – | –
COC(=O)CCC(=O)N[C@@H](CCCCNC(=O)OCc1ccccc1)C(=O)N[C@H](C(=O)N1CCC[C@H]1C(=O)N[C@H](C=O)C(C)C)C(C)C [Example 8b, N-alpha-Methoxysuccinyl-N-epsilon-benzyloxycarbonyl-L-lysyl-L-valyl-L-prol yl-L-valinal] (MeOSuc-K(Cbz)VPV-aldehyde) | 6 | – | – | –
COC(=O)[C@H](CC(C)C)NC(=O)N[C@H](C(=O)N1CCC[C@H]1C(=O)N[C@H](C=O)C(C)C)C(C)C [Example 32g, N-[1(S)-Carbomethoxy-3-methylbutyl]carbamoyl-L-valyl-L-prolyl-L-valinal] ({OMe-Leu-CO}-Val-Pro-Val-aldehyde) | 94 | – | – | –
CC(C)[C@@H](C=O)NC(=O)[C@@H]1CCCN1C(=O)[C@@H](Cc1ccccc1)NC(=O)CCC(=O)O [N-succinyl-D-phenylalanyl-L-prolyl-L-valinal] (Suc-[dF]-Pro-Val-aldehyde) | – | – | 10-100 times | 40000
